Laboratory results reported in the supplement of paper PMC10307832.

Assays:
Experiment in all cases: relative viability (nuclei count vs DMSO), 5 days (fraction); higher = more cells survive
RERF-LC-KJ = test system: RERF-LC-KJ
How it was run: (§1)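 Nuclei were stained with Hoechst during a one-step fixation (final 0.05% Triton X-100, 1% formaldehyde, 1 ug/ml Hoechst) carried out 5 days after dosing, then counted on 4× images. The cells, lung cancer lines in 1536-well plates, had been dosed by pin tool the day after seeding with one drug alone or a fixed anchor-drug dose plus five library-drug doses (not always all listed) in √10 steps. Relative viability is the nuclei count in treated wells divided by that in vehicle wells, and each value is the median of duplicate plates.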

EMC-BAC-2 = test system: EMC-BAC-2
How it was run: as §1

NCI-H1437 = test system: NCI-H1437
How it was run: as §1

NCI-H1734 = test system: NCI-H1734
How it was run: as §1

201T = test system: 201T
How it was run: as §1

LCLC-103H = test system: LCLC-103H
How it was run: as §1

NCI-H1792 = test system: NCI-H1792
How it was run: as §1

NCI-H661 = test system: NCI-H661
How it was run: as §1

NCI-H1395 = test system: NCI-H1395
How it was run: as §1

NCI-H1975 = test system: NCI-H1975
How it was run: as §1

UMC-11 = test system: UMC-11
How it was run: as §1

NCI-H1793 = test system: NCI-H1793
How it was run: as §1

SK-LU-1 = test system: SK-LU-1
How it was run: as §1

EPLC-272H = test system: EPLC-272H
How it was run: as §1

HCC-78 = test system: HCC-78
How it was run: as §1

NCI-H1651 = test system: NCI-H1651
How it was run: as §1

NCI-H647 = test system: NCI-H647
How it was run: as §1

LOU-NH91 = test system: LOU-NH91
How it was run: as §1

NCI-H2405 = test system: NCI-H2405
How it was run: as §1

NCI-H2023 = test system: NCI-H2023
How it was run: as §1

NCI-H1915 = test system: NCI-H1915
How it was run: as §1

NCI-H23 = test system: NCI-H23
How it was run: as §1

ABC-1 = test system: ABC-1
How it was run: as §1

O=C(O)CCCCC(CCSCc1ccccc1)SCc1ccccc1 (centres undefined) [CPI-613] + N=C(N)NC(=N)NCCc1ccccc1 [Phenformin] (partner 250 µM) showed a relative viability (RERF-LC-KJ; first compound 5 µM) of 0.42, a relative viability (RERF-LC-KJ; first compound 15.81 µM) of 0.409 and a relative viability (RERF-LC-KJ; first compound 50 µM) of 0.406. The relative viability (RERF-LC-KJ; first compound 158.11 µM) was 0.134, the relative viability (RERF-LC-KJ; first compound 500 µM) was 0.0945 and the relative viability (EMC-BAC-2; first compound 5 µM) was 0.531. The relative viability (EMC-BAC-2; first compound 15.81 µM) was 0.517, the relative viability (EMC-BAC-2; first compound 50 µM) was 0.502 and the relative viability (EMC-BAC-2; first compound 158.11 µM) was 0.226. The relative viability (EMC-BAC-2; first compound 500 µM) was 0.0232, the relative viability (NCI-H1437; first compound 5 µM) was 0.237 and the relative viability (NCI-H1437; first compound 15.81 µM) was 0.282. It also gave a relative viability (NCI-H1437; first compound 50 µM) of 0.287, a relative viability (NCI-H1437; first compound 158.11 µM) of 0.119 and a relative viability (NCI-H1437; first compound 500 µM) of 0.0327. The relative viability (NCI-H1734; first compound 5 µM) was 0.389, the relative viability (NCI-H1734; first compound 15.81 µM) was 0.322 and the relative viability (NCI-H1734; first compound 50 µM) was 0.348. For the same molecule, the relative viability (NCI-H1734; first compound 158.11 µM) was 0.219, the relative viability (NCI-H1734; first compound 500 µM) was 0.0834 and the relative viability (201T; first compound 5 µM) was 0.514. The relative viability (201T; first compound 15.81 µM) was 0.432, the relative viability (201T; first compound 50 µM) was 0.415 and the relative viability (201T; first compound 158.11 µM) was 0.36. It also gave a relative viability (201T; first compound 500 µM) of 0.0726, a relative viability (LCLC-103H; first compound 5 µM) of 0.322 and a relative viability (LCLC-103H; first compound 15.81 µM) of 0.297. It also gave a relative viability (LCLC-103H; first compound 50 µM) of 0.377, a relative viability (LCLC-103H; first compound 158.11 µM) of 0.294 and a relative viability (LCLC-103H; first compound 500 µM) of 0.278. It also gave a relative viability (NCI-H1792; first compound 5 µM) of 0.332, a relative viability (NCI-H1792; first compound 50 µM) of 0.236 and a relative viability (NCI-H1792; first compound 158.11 µM) of 0.205. It also gave a relative viability (NCI-H1792; first compound 500 µM) of 0.0809, a relative viability (NCI-H661; first compound 5 µM) of 0.291 and a relative viability (NCI-H661; first compound 15.81 µM) of 0.235. The relative viability (NCI-H661; first compound 50 µM) was 0.304, the relative viability (NCI-H661; first compound 158.11 µM) was 0.214 and the relative viability (NCI-H661; first compound 500 µM) was 0.113. For the same molecule, the relative viability (NCI-H1395; first compound 5 µM) was 0.419, the relative viability (NCI-H1395; first compound 15.81 µM) was 0.427 and the relative viability (NCI-H1395; first compound 50 µM) was 0.433. For the same molecule, the relative viability (NCI-H1395; first compound 158.11 µM) was 0.457, the relative viability (NCI-H1395; first compound 500 µM) was 0.397 and the relative viability (NCI-H1975; first compound 5 µM) was 0.397. For the same molecule, the relative viability (NCI-H1975; first compound 15.81 µM) was 0.404, the relative viability (NCI-H1975; first compound 50 µM) was 0.388 and the relative viability (NCI-H1975; first compound 158.11 µM) was 0.291. It also gave a relative viability (NCI-H1975; first compound 500 µM) of 0.0692, a relative viability (UMC-11; first compound 5 µM) of 0.274 and a relative viability (UMC-11; first compound 15.81 µM) of 0.297. It also gave a relative viability (UMC-11; first compound 50 µM) of 0.289, a relative viability (UMC-11; first compound 158.11 µM) of 0.124 and a relative viability (UMC-11; first compound 500 µM) of 0.117. It also gave a relative viability (NCI-H1793; first compound 5 µM) of 0.314, a relative viability (NCI-H1793; first compound 15.81 µM) of 0.319 and a relative viability (NCI-H1793; first compound 50 µM) of 0.45. It also gave a relative viability (NCI-H1793; first compound 158.11 µM) of 0.194, a relative viability (NCI-H1793; first compound 500 µM) of 0.0229 and a relative viability (SK-LU-1; first compound 5 µM) of 0.547. For the same molecule, the relative viability (SK-LU-1; first compound 15.81 µM) was 0.479, the relative viability (SK-LU-1; first compound 50 µM) was 0.642 and the relative viability (SK-LU-1; first compound 158.11 µM) was 0.248. For the same molecule, the relative viability (SK-LU-1; first compound 500 µM) was 0.0581, the relative viability (EPLC-272H; first compound 5 µM) was 0.286 and the relative viability (EPLC-272H; first compound 15.81 µM) was 0.26. For the same molecule, the relative viability (EPLC-272H; first compound 50 µM) was 0.309, the relative viability (EPLC-272H; first compound 158.11 µM) was 0.279 and the relative viability (EPLC-272H; first compound 500 µM) was 0.0144. It also gave a relative viability (HCC-78; first compound 5 µM) of 0.712, a relative viability (HCC-78; first compound 15.81 µM) of 0.647 and a relative viability (HCC-78; first compound 50 µM) of 0.787. For the same molecule, the relative viability (HCC-78; first compound 158.11 µM) was 0.591, the relative viability (HCC-78; first compound 500 µM) was 0.651 and the relative viability (NCI-H1651; first compound 5 µM) was 0.326. For the same molecule, the relative viability (NCI-H1651; first compound 15.81 µM) was 0.316, the relative viability (NCI-H1651; first compound 50 µM) was 0.303 and the relative viability (NCI-H1651; first compound 158.11 µM) was 0.166. It also gave a relative viability (NCI-H1651; first compound 500 µM) of 0.126, a relative viability (NCI-H647; first compound 5 µM) of 0.575 and a relative viability (NCI-H647; first compound 15.81 µM) of 0.408. For the same molecule, the relative viability (NCI-H647; first compound 50 µM) was 0.501, the relative viability (NCI-H647; first compound 158.11 µM) was 0.108 and the relative viability (NCI-H647; first compound 500 µM) was 0.0098. It also gave a relative viability (LOU-NH91; first compound 5 µM) of 0.784, a relative viability (LOU-NH91; first compound 15.81 µM) of 0.591 and a relative viability (LOU-NH91; first compound 50 µM) of 0.652. It also gave a relative viability (LOU-NH91; first compound 158.11 µM) of 0.504, a relative viability (LOU-NH91; first compound 500 µM) of 0.526 and a relative viability (NCI-H2405; first compound 5 µM) of 0.394. The relative viability (NCI-H2405; first compound 15.81 µM) was 0.367, the relative viability (NCI-H2405; first compound 50 µM) was 0.392 and the relative viability (NCI-H2405; first compound 158.11 µM) was 0.396. For the same molecule, the relative viability (NCI-H2405; first compound 500 µM) was 0.371, the relative viability (NCI-H2023; first compound 5 µM) was 0.399 and the relative viability (NCI-H2023; first compound 15.81 µM) was 0.37. It also gave a relative viability (NCI-H2023; first compound 50 µM) of 0.36, a relative viability (NCI-H2023; first compound 158.11 µM) of 0.0556 and a relative viability (NCI-H2023; first compound 500 µM) of 0.0073. For the same molecule, the relative viability (NCI-H1915; first compound 5 µM) was 0.374, the relative viability (NCI-H1915; first compound 15.81 µM) was 0.372 and the relative viability (NCI-H1915; first compound 50 µM) was 0.354. For the same molecule, the relative viability (NCI-H1915; first compound 158.11 µM) was 0.339, the relative viability (NCI-H1915; first compound 500 µM) was 0.0398 and the relative viability (NCI-H23; first compound 5 µM) was 0.819. It also gave a relative viability (NCI-H23; first compound 15.81 µM) of 0.746, a relative viability (NCI-H23; first compound 50 µM) of 0.803 and a relative viability (NCI-H23; first compound 158.11 µM) of 0.358. The relative viability (NCI-H23; first compound 500 µM) was 0.0072, the relative viability (ABC-1; first compound 5 µM) was 0.22 and the relative viability (ABC-1; first compound 15.81 µM) was 0.211. The relative viability (ABC-1; first compound 50 µM) was 0.247, the relative viability (ABC-1; first compound 158.11 µM) was 0.146 and the relative viability (ABC-1; first compound 500 µM) was 0.192.
